This is an account of results in PubChem BioAssay (NCI).

Test systems include ACHN renal; SK-OV-3 ovarian; UACC-257 melanoma; A549 NSCLC; HOP-92 NSCLC; M14 melanoma; SK-MEL-28 melanoma; SF-539 CNS; IGROV1 ovarian; NCI-H226 lung.
What all share (assay): DTP human tumour cell line panel, 48 h

Structures are written as SMILES.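 These data come from cells grown in 96-well plates and exposed to compound for 48 hours at five concentrations. GI50: concentration for 50% inhibition of growth. TGI is the concentration that stops growth completely.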

Broadly, the GI50 is the concentration that inhibits growth by half. As a reminder, the TGI is the concentration at which net growth stops. A low value points to greater sensitivity of the cells. Turning to `COc1ccc(N2Cc3cnc(Nc4ccccc4)nc3N([C@@H]3CC[C@@H](O)C3)C2=O)cc1`, the GI50 was 0.984 µM with ACHN renal; 3.69 µM in the experiment with SK-OV-3 ovarian; 7.36 µM in the experiment with UACC-257 melanoma; 5.16 µM in the experiment with A549 NSCLC; 1.16 µM in the experiment with HOP-92 NSCLC; 3.7 µM in the experiment on M14 melanoma. Moreover, the GI50 with SK-MEL-28 melanoma was 8.19 µM; in the experiment with SF-539 CNS it was 0.652 µM; in the experiment on IGROV1 ovarian, 2.46 µM; in the experiment on NCI-H226 lung it was 0.523 µM. In addition, the TGI with ACHN renal is > 25 µM; with SK-OV-3 ovarian it was > 25 µM; with UACC-257 melanoma, > 25 µM; in the experiment with A549 NSCLC, > 25 µM; with HOP-92 NSCLC, 10.7 µM; in the experiment on M14 melanoma, > 25 µM. Also, the TGI is > 25 µM with SK-MEL-28 melanoma, 5.41 µM in the experiment with SF-539 CNS, > 18.5 µM in the experiment on IGROV1 ovarian and > 25 µM in the experiment with NCI-H226 lung.
With `CC(=O)NNc1nc(C)c(C(=O)NNC(=O)C(=O)Nc2c(C)cccc2C)s1`, the total growth inhibition concentration (TGI) in the experiment with ACHN renal, in the experiment with SK-OV-3 ovarian, in the experiment with UACC-257 melanoma, with A549 NSCLC, with HOP-92 NSCLC and with M14 melanoma was > 100 µM throughout. The TGI in the experiment with SK-MEL-28 melanoma, with SF-539 CNS, in the experiment on IGROV1 ovarian and with NCI-H226 lung was > 100 µM throughout.
`Cc1c(S(C)(=O)=O)c(-c2cc(F)cc(N3CCN(c4ccc(NS(=O)(=O)c5ccc(N[C@H](CCN6CCC(C(=O)OCCCP(=O)(O)O)CC6)CSc6ccccc6)c(S(=O)(=O)C(F)(F)F)c5)cc4)CC3)c2)c(-c2ccc(Cl)cc2)n1C(C)C`: the GI50 in the experiment on ACHN renal was > 100 µM; with SK-OV-3 ovarian, > 100 µM; in the experiment on UACC-257 melanoma it was > 100 µM; with A549 NSCLC, > 100 µM; in the experiment on HOP-92 NSCLC, 0.0794 µM; with M14 melanoma it was > 100 µM. Besides, the GI50 with SK-MEL-28 melanoma, in the experiment on SF-539 CNS, in the experiment with IGROV1 ovarian and in the experiment on NCI-H226 lung was > 100 µM throughout. In addition, the TGI with ACHN renal was > 100 µM; with SK-OV-3 ovarian it was > 100 µM; with UACC-257 melanoma, > 100 µM; with A549 NSCLC it was > 100 µM; with HOP-92 NSCLC, 0.952 µM; with M14 melanoma, > 100 µM. In addition, the concentration for total growth inhibition (TGI) in the experiment with SK-MEL-28 melanoma, in the experiment with SF-539 CNS, in the experiment with IGROV1 ovarian and with NCI-H226 lung was > 100 µM each time.
Consider `CC1OC(OCC2OC(Oc3c(-c4ccc(O)cc4)oc4cc(O)cc(O)c4c3=O)C(OC3OC(C)C(O)C(O)C3O)C(O)C2O)C(O)C(O)C1O` (stereo not given), for which the TGI in the experiment with ACHN renal, in the experiment with SK-OV-3 ovarian, in the experiment on UACC-257 melanoma, in the experiment with A549 NSCLC, in the experiment with HOP-92 NSCLC and with M14 melanoma was > 100 µM in each case. Also, the TGI in the experiment on SK-MEL-28 melanoma, in the experiment on SF-539 CNS, in the experiment on IGROV1 ovarian and in the experiment on NCI-H226 lung was > 100 µM in each case.
With `CC(=O)Nc1ccc(C(=O)NN2C(=O)C(Cl)C2c2ccc([N+](=O)[O-])cc2)cc1` (stereo not given), the TGI in the experiment on ACHN renal, with SK-OV-3 ovarian, in the experiment on UACC-257 melanoma, with A549 NSCLC, in the experiment on HOP-92 NSCLC and in the experiment on M14 melanoma was > 100 µM each time. Further, the TGI in the experiment on SK-MEL-28 melanoma, in the experiment on SF-539 CNS, in the experiment with IGROV1 ovarian and with NCI-H226 lung was > 100 µM in each case.
With `Cc1ccc(/C(=N\N=C(N)N)c2ccccc2)cc1`, the GI50 with ACHN renal was 0.777 µM; in the experiment with SK-OV-3 ovarian, 0.42 µM; in the experiment with UACC-257 melanoma, 11.7 µM; with A549 NSCLC, 0.433 µM; in the experiment on HOP-92 NSCLC it was 1.68 µM; in the experiment on M14 melanoma it was 0.285 µM. The GI50 in the experiment on SK-MEL-28 melanoma was 0.535 µM; in the experiment on SF-539 CNS, 0.265 µM; with IGROV1 ovarian it was 0.459 µM; with NCI-H226 lung, 0.726 µM. Further, the TGI in the experiment with ACHN renal amounted to 14.8 µM; with SK-OV-3 ovarian, 10.4 µM; in the experiment on UACC-257 melanoma it was 28.2 µM; with A549 NSCLC it was 17.3 µM; in the experiment on HOP-92 NSCLC it was 20.2 µM; in the experiment with M14 melanoma, 0.977 µM. Moreover, the TGI in the experiment with SK-MEL-28 melanoma came out at 15.4 µM; with SF-539 CNS, 0.925 µM; with IGROV1 ovarian it was 31.4 µM; in the experiment on NCI-H226 lung, 10.1 µM.
For the compound `COC(=O)C1C(O)CC(c2ccccn2)N(Cc2ccccc2)C1c1ccccn1` (stereo not given), the TGI in the experiment with ACHN renal, in the experiment with SK-OV-3 ovarian, with UACC-257 melanoma, in the experiment on A549 NSCLC, in the experiment on HOP-92 NSCLC and in the experiment on M14 melanoma was > 100 µM in each case. The total growth inhibition concentration (TGI) in the experiment with SK-MEL-28 melanoma, in the experiment with SF-539 CNS, with IGROV1 ovarian and with NCI-H226 lung was > 100 µM each time.
With `CCOC(=O)/C(O)=C/c1cc(OC)cc(=O)o1`, the total growth inhibition concentration (TGI) in the experiment with ACHN renal, with SK-OV-3 ovarian, with UACC-257 melanoma, in the experiment with A549 NSCLC, with HOP-92 NSCLC and in the experiment on M14 melanoma was > 100 µM in each case. The total growth inhibition concentration (TGI) with SK-MEL-28 melanoma, in the experiment on SF-539 CNS, with IGROV1 ovarian and with NCI-H226 lung was > 100 µM in each case.
